Laboratory results from PMC5118987 (Antimicrobial Agents and Chemotherapy, 2016).
Like-named read-outs stand apart in the source and are kept apart here.

Tests used:
HCV 2a Replicon = assay: Anti-HCV activity, HCV 2a replicon; settings: Hepatitis C virus, Huh-7
HIV-1 IIIb [1] = assay: Antiviral assay in MT-2 cells; type: cell-based
Procedure: (§1) For the antiviral assay utilizing MT-2 and MT-4 cells, 50 μl of a 2× test concentration of 5-fold serially diluted compound in culture medium with 10% FBS was added to each well of a 96-well plate (9 concentrations) in triplicate. MT-2 and MT-4 cells were infected with HIV-1 IIIb at a multiplicity of infection (MOI) of 0.01 for 3 h. Fifty microliters of infected cell suspension in culture medium with 10% FBS (∼1.5 × 10^4 cells) then was added to each well containing 50 μl of diluted compound. The plates were then incubated at 37°C for 5 days. After 5 days of incubation, 100 μl of CellTiter-Glo reagent (Promega Biosciences, Inc., Madison, WI) was added to each well containing MT-2 or MT-4 cells. Cell lysis was carried out by incubation at room temperature for 10 min and chemiluminescence was read. For compound cytotoxicity assessment, the protocol was identical except that uninfected cells were used and compounds were serially diluted 3-fold.

in vitro = settings: human, 6 days
From the text: Freshly isolated human peripheral blood mononuclear cells (PBMCs) were obtained from healthy volunteers (supplied by AllCells, Inc., Alameda, CA). Blood donors were negative for HIV-1, hepatitis B, and hepatitis C viral infections. CD4^+ T lymphocytes were isolated by negative selection using a magnetically labeled antibody cocktail ([sequence] Technologies Inc., Vancouver, Canada) and cultured in RPMI cell culture media (Life Technologies, Grand Island, NY) supplemented with 10% FBS. CD4^+ T cells were activated for 48 h at 37°C by addition of 1 μg/ml phytohemagglutinin (PHA; Sigma, St. Louis, MO) and 5 ng/ml interleukin-2 (IL-2; Roche Diagnostics, Indianapolis, IN). […] Human PBMCs were used for cytotoxicity assays after culturing for 48 h in either complete RPMI medium alone (resting conditions) or RPMI containing 1 μg/ml PHA and 5 ng/ml IL-2 (activated conditions).

RSV strain A2 = assay: microbe, parasite or virus in culture; type: cell-based, respiratory syncytial virus; settings: human respiratory syncytial virus, HEp-2
HIV-1 BaL = settings: primary CD4+ T-cells, 35 days, drug at tissue culture equivalent clinical Cmin (FTC 160 × EC50)
HIV-1 IIIb [2] = assay: microbe, parasite or virus in culture; settings: Human immunodeficiency virus 1, IIIB, MT4
Procedure: Each compound series was prepared several times independently in quadruplicate to capture the variations in Hill slope associated with preparation of compound serial dilutions. The assay was performed in a 384-well format. MT-4 cells were infected in bulk at the same MOI as that described above, and the plates were developed with CellTiter-Glo reagent 5 days postinfection.

[3] = system: INSTI-resistant HIV-1 mutants (HXB2); assay: microbe, parasite or virus in culture; type: cell-based
Influenza A/PC/1/73 = assay: microbe, parasite or virus in culture; type: cell-based; settings: NHBE
[4] = system: inhibitor-selected HIV-1 IIIb passages; assay: Phenotypic profile of selected HIV-1 passages; type: cell-based; settings: Human immunodeficiency virus 1, IIIB
[5] = Cytotoxicity assay in MT-4 cells; type: cell-based; settings: human, uninfected MT-4 cells
Procedure: as §1

HIV-1 IIIb [6] = assay: Antiviral assay in MT-4 cells; type: cell-based; settings: Human immunodeficiency virus 1, MT4, 120 h, 5 days
Procedure: as §1

HIV-2 CDC 310319 = assay: Antiviral assay against HIV-2 isolate in fresh human PBMCs (RT endpoint); settings: Human immunodeficiency virus 2, PBMC
[7] = Cytotoxicity in AD38 cells; settings: human
HBV Production = assay: microbe, parasite or virus in culture; settings: Hepatitis B virus
HCV 1b Replicon = assay: Anti-HCV activity, HCV 1b replicon; settings: Hepatitis C virus, Huh-7
[8] = system: HRV (mixture of HRV1A, HRV14, HRV16); assay: microbe, parasite or virus in culture; type: cell-based; settings: Human rhinovirus sp., H1-HeLa

C[C@@H]1CCO[C@H]2Cn3cc(C(=O)NCc4ccc(F)cc4F)c(=O)c(O)c3C(=O)N12 [DTG, Dolutegravir]
EC50 (HCV 2a Replicon): > 44000 nM
EC50 (HIV-1 IIIb [1]; Human immunodeficiency virus 1, IIIB, MT2, Table S9 footnote b, read-out: EC50 previously determined (start of resistance selection at twice the EC50)): 1.6 nM
EC50 (HIV-1 IIIb [1]; Human immunodeficiency virus 1, MT2, 120 h, MT-2 cells, HIV-1 IIIb, 5 days, read-out: EC50): 1.5 ± 0.2 nM
CC50 (in vitro; CC50, Activated PBMCs (IL-2/PHA 2 days)): 23900 nM
CC50 (in vitro; CC50, Resting PBMCs): 30600 nM
EC50 (RSV strain A2): > 50000 nM
Frequency of Viral Breakthrough with RAMs (HIV-1 BaL): 0%
p24+ Wells (HIV-1 BaL): 0/24
EC50 (HIV-1 IIIb [2]): 1.7 ± 0.2 nM
EC50 ([3]; Human immunodeficiency virus 1, HXB2, IN mutant E92Q): 1.8 ± 0.5 nM
EC50 ([3]; Human immunodeficiency virus 1, HXB2, IN mutant E92Q/N155H): 2.8 ± 0.6 nM
EC50 ([3]; Human immunodeficiency virus 1, HXB2, IN mutant E138K/Q148K): 13.7 ± 2.1 nM
EC50 ([3]; Human immunodeficiency virus 1, HXB2, IN mutant G140S/Q148R): 6.5 ± 1.2 nM
EC50 ([3]; Human immunodeficiency virus 1, HXB2, IN mutant M50I (BIC/DTG selection)): 2 ± 0.2 nM
EC50 ([3]; Human immunodeficiency virus 1, HXB2, IN mutant M50I/R263K (BIC selection)): 3.6 ± 0.5 nM
EC50 ([3]; Human immunodeficiency virus 1, HXB2, IN mutant M50I/S119R/R263K (DTG selection)): 6.2 ± 2.4 nM
EC50 ([3]; Human immunodeficiency virus 1, HXB2, IN mutant N155H): 2.4 ± 0.6 nM
EC50 ([3]; Human immunodeficiency virus 1, HXB2, IN mutant N155H/Q148R): 4.7 ± 1.5 nM
EC50 ([3]; Human immunodeficiency virus 1, HXB2, IN mutant Q148R): 1 ± 0.3 nM
EC50 ([3]; Human immunodeficiency virus 1, HXB2, IN mutant R263K (BIC/DTG selection), Table 7): 3.6 ± 0.4 nM
EC50 ([3]; Human immunodeficiency virus 1, HXB2, IN mutant R263K, Table 6): 2.5 ± 0.4 nM
EC50 ([3]; Human immunodeficiency virus 1, HXB2, IN mutant S119R (DTG selection)): 2.1 ± 0.7 nM
EC50 ([3]; Human immunodeficiency virus 1, HXB2, IN mutant S119R/R263K (DTG selection)): 3.6 ± 0.8 nM
EC50 ([3]; Human immunodeficiency virus 1, HXB2, IN mutant S153Y (DTG selection)): 4 ± 1.1 nM
EC50 ([3]; Human immunodeficiency virus 1, HXB2, IN mutant S153Y/R263K (DTG selection)): 6.4 ± 0.8 nM
EC50 ([3]; Human immunodeficiency virus 1, HXB2, IN mutant Y143R): 1.9 ± 0.5 nM
EC50 ([3]; Human immunodeficiency virus 1, HXB2, WT (HXB2), Table 6, read-out: EC50): 1.4 ± 0.3 nM
levels of resistance of double IN mutants ([3]; {}): 2.1-10 fold
EC50 (Influenza A/PC/1/73): 12800 nM
EC50 ([4]; 480 h, selected virus EVG P2 (day 20, 7.2 nM)): 5.4 nM
EC50 ([4]; HIV-1-IIIb (unselected)): 2.5 nM
EC50 ([4]; selected virus BIC P3 (day 47, 6 nM)): 3.6 nM
EC50 ([4]; selected virus BIC P5 (day 71, 12 nM)): 6.4 nM
EC50 ([4]; selected virus BIC P6 (day 86, 24 nM)): 8.3 nM
EC50 ([4]; selected virus BIC P8 (day 156, 96 nM)): 12 nM
EC50 ([4]; selected virus BIC P9 (day 181, 192 nM)): 19.1 nM
EC50 ([4]; selected virus BIC P10 (day 234, 384 nM)): 14.7 nM
EC50 ([4]; selected virus DTG P3Lo (day 59, 6.4 nM)): 3.2 nM
EC50 ([4]; selected virus DTG P4 (day 87, 9.6 nM)): 7.8 nM
EC50 ([4]; selected virus DTG P5 (day 97, 14.4 nM)): 10.3 nM
EC50 ([4]; selected virus DTG P7 (day 139, 32.4 nM)): 12.4 nM
EC50 ([4]; selected virus DTG P9 (day 174, 72.9 nM)): 15.6 nM
EC50 ([4]; selected virus DTG P10 (day 202, 109.4 nM)): 19.7 nM
EC50 ([4]; selected virus EVG P4 (day 41, 28.8 nM)): 7.1 nM
EC50 ([4]; selected virus EVG P6 (day 56, 115 nM)): 7.1 nM
EC50 ([4]; selected virus EVG P7 (day 67, 230 nM)): 8.1 nM
EC50 ([4]; selected virus EVG P9 (day 94, 922 nM)): 6.6 nM
EC50 ([4]; selected virus EVG P10 (day 119, 1843 nM)): 3.5 nM
CC50 at 5 days [5]: 14700 nM
EC50 (HIV-1 IIIb [6]): 1.5 ± 0.3 nM
EC50 (HIV-2 CDC 310319): 2.5 ± 0.5 nM
CC50 at 5 days [7]: > 50000 nM
EC50 (HBV Production): > 50000 nM
EC50 (HCV 1b Replicon): > 44000 nM
EC50 [8]: > 50000 nM
